According to patent publication US20250213571A1, “TYK2 INHIBITORS AND USES THEREOF” (Alumis Inc., priority 2022, published 2025):

Experiments:
[1] = biological target: human TYK2 (JH2domain-pseudokinase) (Homo sapiens (Human), UniProt P29597); assay: TYK2 JH2 domain binding assay (KINOMEscan)
Method in brief: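 KINOMEscan competition: DNA-tagged NFkB-fusion kinase domains from HEK293 extracts (<0.1 nM) bound immobilized ligand with compound for 1 hour at room temperature, 0.9% DMSO. Bead-retained kinase was quantified by qPCR. Kd came from 11-point 3-fold series from 30,000 nM top, in duplicate, Hill fit with slope −1.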

[2] = biological target: TYK2 JH1 (Homo sapiens (Human), UniProt P29597); assay: TYK2 JH1 binding (Kd, Table 2); details: JH1 domain
Sequence of TYK2 JH1 (P29597 897-1176): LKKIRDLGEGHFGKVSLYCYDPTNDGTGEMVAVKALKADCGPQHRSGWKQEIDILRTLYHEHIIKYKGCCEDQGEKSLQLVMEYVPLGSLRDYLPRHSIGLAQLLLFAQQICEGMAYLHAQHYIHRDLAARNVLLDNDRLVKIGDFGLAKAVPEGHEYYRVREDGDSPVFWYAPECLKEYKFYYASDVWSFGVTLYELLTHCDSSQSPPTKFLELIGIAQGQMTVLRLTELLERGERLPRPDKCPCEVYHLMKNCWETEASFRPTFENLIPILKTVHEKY

[3] = biological target: JAK3 JH1 (Homo sapiens (Human), UniProt P52333); assay: JAK3 JH1 binding (Kd, Table 2); details: JH1 domain
Sequence of JAK3 JH1 (P52333 822-1111): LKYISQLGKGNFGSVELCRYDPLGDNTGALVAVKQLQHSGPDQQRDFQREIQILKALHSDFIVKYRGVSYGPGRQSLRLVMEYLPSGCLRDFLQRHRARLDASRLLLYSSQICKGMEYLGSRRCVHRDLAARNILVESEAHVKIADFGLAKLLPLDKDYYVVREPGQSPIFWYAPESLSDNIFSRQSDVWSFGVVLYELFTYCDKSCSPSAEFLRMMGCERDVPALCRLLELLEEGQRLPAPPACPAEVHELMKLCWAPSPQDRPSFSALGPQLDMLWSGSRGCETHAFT

[4] = biological target: JAK2 JH2 (Homo sapiens (Human), UniProt O60674); assay: JAK2 JH2 binding (Kd, Table 2); details: JH2 domain
Sequence of JAK2 JH2 (O60674 545-809): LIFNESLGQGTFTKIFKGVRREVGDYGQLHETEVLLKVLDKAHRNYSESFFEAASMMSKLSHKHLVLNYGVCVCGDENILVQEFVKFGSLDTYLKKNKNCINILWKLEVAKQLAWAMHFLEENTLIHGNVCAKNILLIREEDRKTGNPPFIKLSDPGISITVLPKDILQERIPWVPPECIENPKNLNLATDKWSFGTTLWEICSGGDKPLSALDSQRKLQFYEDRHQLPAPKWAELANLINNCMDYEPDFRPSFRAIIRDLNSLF

[5] = biological target: JAK2 JH1 (Homo sapiens (Human), UniProt O60674); assay: JAK2 JH1 binding (Kd, Table 2); details: JH1 domain
Sequence of JAK2 JH1 (O60674 849-1124): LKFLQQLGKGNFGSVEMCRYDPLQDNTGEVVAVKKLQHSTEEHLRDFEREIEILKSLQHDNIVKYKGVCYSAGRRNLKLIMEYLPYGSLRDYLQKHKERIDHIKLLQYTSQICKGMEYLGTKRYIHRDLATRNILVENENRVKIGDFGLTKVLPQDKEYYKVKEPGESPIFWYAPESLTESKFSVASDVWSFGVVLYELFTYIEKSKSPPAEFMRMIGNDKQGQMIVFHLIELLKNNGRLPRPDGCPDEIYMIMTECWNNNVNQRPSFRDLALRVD

[6] = biological target: JAK1 JH2 (Homo sapiens (Human), UniProt P23458); assay: JAK1 JH2 binding (Kd, Table 2); details: JH2 domain
Sequence of JAK1 JH2 (P23458 583-855): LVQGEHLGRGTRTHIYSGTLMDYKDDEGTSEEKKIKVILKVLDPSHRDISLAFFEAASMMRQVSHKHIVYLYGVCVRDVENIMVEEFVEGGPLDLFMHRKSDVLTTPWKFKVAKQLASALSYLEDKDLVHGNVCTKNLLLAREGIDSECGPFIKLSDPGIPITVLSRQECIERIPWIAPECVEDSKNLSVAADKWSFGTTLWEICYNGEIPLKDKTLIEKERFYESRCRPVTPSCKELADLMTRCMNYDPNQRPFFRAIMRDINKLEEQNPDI

[7] = biological target: JAK1 JH1 (Homo sapiens (Human), UniProt P23458); assay: JAK1 JH1 binding (Kd, Table 2); details: JH1 domain
Sequence of JAK1 JH1 (P23458 875-1153): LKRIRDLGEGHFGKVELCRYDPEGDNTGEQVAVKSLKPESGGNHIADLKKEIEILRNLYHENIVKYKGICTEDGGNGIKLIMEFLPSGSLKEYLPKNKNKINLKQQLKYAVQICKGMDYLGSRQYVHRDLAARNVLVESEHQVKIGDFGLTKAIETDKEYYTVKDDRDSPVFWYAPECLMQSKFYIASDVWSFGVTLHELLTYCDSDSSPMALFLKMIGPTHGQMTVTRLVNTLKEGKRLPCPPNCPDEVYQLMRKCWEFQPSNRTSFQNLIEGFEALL

[8] = tested on: IFNa, PBMCs, p-STAT3; assay: IFNa induced p-STAT3 in PBMCs; format: cell-based; details: Homo sapiens, PBMC, IFNa stimulated PBMCs
[9] = tested on: INFα Induced pSTAT5 in Human PBMC; assay: INFα induced pSTAT5 in human PBMC; format: cell-based; details: 0.25 h, human PBMCs, INFα 5000 units/ml 15 minutes, p-STAT5, read-out: IFNa, PBMCs, p-STAT5 (IC50)
Procedure: Fresh Human PBMCs were resuspended in RPMI 1640 medium with 10% FBS. Cells were seeded in a round bottom 96-well plate at the concentration of 200,000 cells/well. A 10-point dilution series of test compound (top dose 10 uM, 1:5 dilution) was added to the well using the liquid dispenser (Tecan D300e) and incubated for 1 hour at 37 C. Then human INFα recombinant protein (R&D Systems) was added to the well at the final concentration of 5000 units/ml and incubated for 15 minutes at 37 C. Cell lysates were prepared and analyzed by Phospho STAT5 (Tyr693) Kit (Meso Scale Discovery) following manufacturer's protocol.
For calculation of the inhibition rate, the relative pSTAT5 signal of each well=pSTAT5 signal of each well−the average pSTAT5 signal of baseline.
The inhibition %=(the average pSTAT5 signal of INFα treatment wells−the relative of pSTAT5 signal in each compound containing well)/the average pSTAT5 signal of INFα treatment wells*100%
The curve was plotted as the inhibition % (y-axis) vs. compounds concentration (x-axis) and is fitted with log(inhibitor) vs. normalized response—Variable slope by GraphPad Prism7.0.

Sequence of human TYK2 (JH2domain-pseudokinase) (P29597 556-888): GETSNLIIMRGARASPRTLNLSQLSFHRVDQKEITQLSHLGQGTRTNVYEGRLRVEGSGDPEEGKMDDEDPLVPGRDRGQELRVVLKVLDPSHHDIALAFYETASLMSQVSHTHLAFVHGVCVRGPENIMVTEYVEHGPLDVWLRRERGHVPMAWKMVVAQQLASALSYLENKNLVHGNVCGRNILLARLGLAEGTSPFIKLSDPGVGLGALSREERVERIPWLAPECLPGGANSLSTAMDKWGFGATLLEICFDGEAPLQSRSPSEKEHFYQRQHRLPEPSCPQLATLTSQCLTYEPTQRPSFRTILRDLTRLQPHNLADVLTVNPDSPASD

SMILES	Kd [1] [nM]	Kd [2] [nM]	Kd [3] [nM]	Kd [4] [nM]	Kd [5] [nM]	Kd [6] [nM]	Kd [7] [nM]	IC50 [8] [nM]	IC50 [9] [nM]
CNc1cc2nn3c(cnc13)C(=O)N[C@H](C)COCc1cc(c3nn(C)nc3c1)N2 [Compound 6]	< 10	1000 to 10000	≥ 30000	1000 to 10000	≥ 30000	10 to 1000	≥ 30000	< 50	< 50
CNc1cc2nn3c(cnc13)C(=O)N[C@H](C)COCc1cc(c3c(c1)nnn3C)N2 [Compound 1]	< 10	1000 to 10000	≥ 30000	1000 to 10000	≥ 30000	10 to 1000	≥ 30000	< 50	< 50
